These results are taken from patent US9580390B2, “Indazole compounds as kinase inhibitors and method of treating cancer with same” (University Health Network, priority 2011, dated 2017).

Experiment [1] addresses T1, human TTK (Homo sapiens, UniProt P33981).
T1 construct: amino terminal GST fusion of full length human TTK; purchased Invitrogen
T1 sequence (P33981 1-857): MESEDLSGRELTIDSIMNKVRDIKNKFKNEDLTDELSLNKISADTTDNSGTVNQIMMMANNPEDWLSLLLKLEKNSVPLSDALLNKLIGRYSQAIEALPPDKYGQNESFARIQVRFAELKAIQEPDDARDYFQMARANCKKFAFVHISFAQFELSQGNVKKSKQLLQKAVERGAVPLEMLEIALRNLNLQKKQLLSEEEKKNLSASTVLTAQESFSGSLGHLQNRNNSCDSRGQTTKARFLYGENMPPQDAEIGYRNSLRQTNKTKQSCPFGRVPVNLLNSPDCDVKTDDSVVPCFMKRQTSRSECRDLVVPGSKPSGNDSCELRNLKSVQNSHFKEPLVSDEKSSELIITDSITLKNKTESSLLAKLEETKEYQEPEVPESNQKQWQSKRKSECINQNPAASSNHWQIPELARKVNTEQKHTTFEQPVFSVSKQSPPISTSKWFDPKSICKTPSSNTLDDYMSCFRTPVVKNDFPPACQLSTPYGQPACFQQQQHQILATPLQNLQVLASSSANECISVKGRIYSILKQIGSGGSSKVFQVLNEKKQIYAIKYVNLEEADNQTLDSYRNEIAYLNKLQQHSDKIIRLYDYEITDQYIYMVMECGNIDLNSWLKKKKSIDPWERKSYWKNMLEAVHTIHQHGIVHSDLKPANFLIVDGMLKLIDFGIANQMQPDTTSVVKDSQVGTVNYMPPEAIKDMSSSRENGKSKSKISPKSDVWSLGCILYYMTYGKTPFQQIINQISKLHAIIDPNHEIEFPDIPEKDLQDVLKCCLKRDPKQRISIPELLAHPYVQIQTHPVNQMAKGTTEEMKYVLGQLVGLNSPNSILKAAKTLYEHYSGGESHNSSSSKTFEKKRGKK
Description: TTK inhibition assay (indirect ELISA). It is filed as biochemical. The note with it: read-out: TTK IC50 Range. Background: An ELISA detects its analyte on a solid surface through an enzyme-linked reagent.

The test system of experiment [2] is Breast cancer cells. Description: Cancer cell line growth inhibition (SRB assay). It counts as cell-based. The note with it: Homo sapiens; MDA-MB-468; read-out: Cancer Cell Line GI50 Range MDA-MB-468. (In general: The SRB assay estimates cell density from bound dye.)
The subject of experiment [3] is colon cancer cells (HCT116). As to the kind of experiment: Cancer cell line growth inhibition (SRB assay). It counts as cell-based. The settings on record: read-out: Cancer Cell Line GI50 Range HCT116.
Experiment [4] deals with ovarian cancer cells (PA-1). Description: Cancer cell line growth inhibition (SRB assay). It is filed as cell-based. The note with it: PA-1, read-out: Cancer Cell Line GI50 Range PA-1.

SMILES strings stand for the structures. Like-named read-outs stand apart in the source and are kept apart here.

Regarding `CN1CCC(Oc2ccc(-c3n[nH]c4ccc(C(=O)NC(c5ccccn5)C(C)(C)C)cc34)cc2)CC1` (centres unmarked) [Example A388], the IC50 (usually the point on the concentration scale where inhibition reaches its midpoint) in experiment [1] is under 100 nM. The GI50 (as a rule, the concentration giving 50% growth inhibition) in experiment [2] is over 500 nM; in experiment [3] (Homo sapiens, HCT-116), 100 to 500 nM; in experiment [4] (Homo sapiens), 100 to 500 nM.

As for `O=C(N[C@@H](c1ncccn1)C1CCCC1)c1ccc2[nH]nc(-c3ccc(N4CC(C5COC5)C4)cc3)c2c1` [Example A312, (R)-N-(cyclopentyl(pyrimidin-2-yl)methyl)-3-(4-(3-(oxetan-3-yl)azetidin-1-yl)phenyl)-1H-indazole-5-carboxamide], the IC50 in experiment [1] was under 100 nM. Further, the 50% growth inhibitory concentration (GI50) was under 100 nM in experiment [2]; under 100 nM in experiment [3] (Homo sapiens, HCT-116); under 100 nM in experiment [4] (Homo sapiens).

On to `O=C(N[C@@H](c1ccccn1)C1CC1)c1ccc2[nH]nc(-c3ccc(N4C5CCC4CC(O)C5)cc3)c2c1` (some centres unmarked) [Example A512], for which the IC50 in experiment [1] is under 100 nM. The GI50 in experiment [2] is 100 to 500 nM; in experiment [3] (HCT116), under 100 nM; in experiment [4], under 100 nM.

Regarding `CC(C)C(NC(=O)c1ccc2[nH]nc(-c3ccc(O[C@H]4C[C@H]5CC[C@@H](C4)N5C4COC4)cc3)c2c1)c1ccccc1Cl` (stereo partly drawn) [Example A324, N-(1-(2-chlorophenyl)-2-methylpropyl)-3-(4-(((1R,3R,5S)-8-(oxetan-3-yl)-8-azabicyclo[3.2.1]octan-3-yl)oxy)phenyl)-1H-indazole-5-carboxamide], the IC50 in experiment [1] was under 100 nM. For the same molecule, the GI50 is 100 to 500 nM in experiment [2]; 100 to 500 nM in experiment [3] (Homo sapiens, HCT-116); 100 to 500 nM in experiment [4] (Homo sapiens).

Consider `Cc1cc(=O)n(C)c2ccc(-c3n[nH]c4ccc(C(=O)N[C@H](c5ccccn5)C5CC5)cc34)cc12` [Example A238], for which the IC50 in experiment [1] was under 100 nM. In addition, the GI50 in experiment [2] was over 500 nM; in experiment [3] (Homo sapiens, HCT-116) it was 100 to 500 nM; in experiment [4] (Homo sapiens) it was 100 to 500 nM.

For `O=C(NC(c1ccccc1)C1CCC1)c1ccc2[nH]nc(-c3ccc(O[C@H]4C[C@H]5CC[C@@H](C4)N5C4COC4)cc3)c2c1` (stereo partly drawn) [Example A345, N-(cyclobutyl(phenyl)methyl)-3-(4-(((1R,3R,5S)-8-(oxetan-3-yl)-8-azabicyclo[3.2.1]octan-3-yl)oxy)phenyl)-1H-indazole-5-carboxamide], the IC50 in experiment [1] was under 100 nM. The GI50 was in the range of 100 to 500 nM in experiment [2]; 100 to 500 nM in experiment [3] (Homo sapiens, HCT-116); 100 to 500 nM in experiment [4] (Homo sapiens).

Turning to `CC(C)C[C@H](NC(=O)c1ccc2[nH]nc(-c3ccc(N4C5CCCC4CC(O)C5)cc3)c2c1)c1ccccn1` (stereo partly drawn) [Example A304, 3-(4-((1R,3S,5S)-3-hydroxy-9-azabicyclo[3.3.1]nonan-9-yl)phenyl)-N-((S)-3-methyl-1-(pyridin-2-yl)butyl)-1H-indazole-5-carboxamide], in experiment [1], the IC50 is under 100 nM. Moreover, the GI50 was in the range of 100 to 500 nM in experiment [2]; 100 to 500 nM in experiment [3] (Homo sapiens, HCT-116); 100 to 500 nM in experiment [4] (Homo sapiens).

As to `C[C@@H](O)CN1CCC(Oc2ccc(-c3n[nH]c4ccc(C(=O)NCC5(OC6CCCC6)CCCCC5)cc34)cc2)CC1` [Example A444, (R)-N-((1-(cyclopentyloxy)cyclohexyl)methyl)-3-(4-((1-(2-hydroxypropyl)piperidin-4-yl)oxy)phenyl)-1H-indazole-5-carboxamide], the concentration for half-maximal inhibition (IC50) in experiment [1] was under 100 nM. The GI50 was over 500 nM in experiment [2]; over 500 nM in experiment [3] (Homo sapiens, HCT-116); over 500 nM in experiment [4] (Homo sapiens).

On to `CC1(C)CC(=O)c2cc(-c3n[nH]c4ccc(C(=O)NCC5(N6CCOCC6)CCCCC5)cc34)ccc2O1` [Example A490, 3-(2,2-dimethyl-4-oxochroman-6-yl)-N-((1-morpholinocyclohexyl)methyl)-1H-indazole-5-carboxamide], for which the IC50 in experiment [1] is 100 to 500 nM. In addition, the GI50 in experiment [2] is over 500 nM; in experiment [3] (Homo sapiens, HCT-116), over 500 nM; in experiment [4] (Homo sapiens) it was over 500 nM.

As for `CN1CC(Oc2ccc(-c3n[nH]c4ccc(C(=O)N[C@H](c5ccccn5)C5CCCC5)cc34)cc2)C1` [Example A295, (S)-N-(cyclopentyl(pyridin-2-yl)methyl)-3-(4-((1-methylazetidin-3-yl)oxy)phenyl)-1H-indazole-5-carboxamide], the IC50 in experiment [1] was under 100 nM. Besides, the GI50 in experiment [2] was 100 to 500 nM; in experiment [3] (Homo sapiens, HCT-116), under 100 nM; in experiment [4] (Homo sapiens), under 100 nM.

For `O=C(NCC1(CN2CCOCC2)CCCCC1)c1ccc2[nH]nc(-c3ccc(N4[C@@H]5CC[C@H]4COC5)cc3)c2c1` [Example A510, 3-(4-((1R,5S)-3-oxa-8-azabicyclo[3.2.1]octan-8-yl)phenyl)-N-((1-(morpholinomethyl)cyclohexyl)methyl)-1H-indazole-5-carboxamide], in experiment [1], the 50% inhibitory concentration (IC50) was under 100 nM. Also, the GI50 in experiment [2] is 100 to 500 nM; in experiment [3] (Homo sapiens, HCT-116) it was 100 to 500 nM; in experiment [4] (Homo sapiens), 100 to 500 nM.

For `CC(C)CC(NC(=O)c1ccc2[nH]nc(-c3ccc(O[C@H]4C[C@H]5CC[C@@H](C4)N5C4COC4)cc3)c2c1)c1ccccc1` (stereo partly drawn) [Example A338, N-(3-methyl-1-phenylbutyl)-3-(4-(((1R,3R,5S)-8-(oxetan-3-yl)-8-azabicyclo[3.2.1]octan-3-yl)oxy)phenyl)-1H-indazole-5-carboxamide], the IC50 in experiment [1] was under 100 nM. The GI50 is 100 to 500 nM in experiment [2]; 100 to 500 nM in experiment [3] (Homo sapiens, HCT-116); 100 to 500 nM in experiment [4] (Homo sapiens).

For the molecule `O=C(NCC1(c2ccncc2)CC1)c1ccc2[nH]nc(-c3ccc(N4CCOCC4)cc3)c2c1` [Example A464, 3-(4-morpholinophenyl)-N-((1-(pyridin-4-yl)cyclopropyl)methyl)-1H-indazole-5-carboxamide], the IC50 in experiment [1] was 100 to 500 nM. The 50% growth inhibitory concentration (GI50) in experiment [2] was over 500 nM; in experiment [3] (Homo sapiens, HCT-116), over 500 nM; in experiment [4] (Homo sapiens) it was 100 to 500 nM.

With `CCC(CC)(CNC(=O)c1ccc2[nH]nc(-c3ccc(N4CCOCC4)cc3)c2c1)N1CCOCC1` [Example A463, N-(2-ethyl-2-morpholinobutyl)-3-(4-morpholinophenyl)-1H-indazole-5-carboxamide], the half-maximal inhibitory concentration (IC50) in experiment [1] was under 100 nM. Moreover, the GI50 in experiment [2] is 100 to 500 nM; in experiment [3] (Homo sapiens, HCT-116) it was 100 to 500 nM; in experiment [4] (Homo sapiens), under 100 nM.

Regarding `CN1[C@@H]2CC[C@H]1C[C@@H](Oc1ccc(-c3n[nH]c4ccc(C(=O)NC(c5ccccc5)C(F)F)cc34)cc1)C2` (stereo partly drawn) [Example A227, N-(2,2-difIuoro-1-phenylethyl)-3-(4-(((1R,3R,5S)-8-methyl-8-azabicyclo[3.2.1]octan-3-yl)oxy)phenyl)-1H-indazole-5-carboxamide], the IC50 in experiment [1] was under 100 nM. Further, the GI50 in experiment [2] is over 500 nM; in experiment [3] (Homo sapiens, HCT-116), under 100 nM; in experiment [4] (Homo sapiens) it was 100 to 500 nM.

On to `CN1CCC(Oc2ccc(-c3n[nH]c4ccc(C(=O)NCC5(OC6CCCC6)CCCCC5)cc34)cc2)CC1` [Example A442, N-((1-(cyclopentyloxy)cyclohexyl)methyl)-3-(4-((1-methylpiperidin-4-yl)oxy)phenyl)-1H-indazole-5-carboxamide], for which the IC50 in experiment [1] is under 100 nM. In addition, the GI50 was over 500 nM in experiment [2]; over 500 nM in experiment [3] (Homo sapiens, HCT-116); over 500 nM in experiment [4] (Homo sapiens).

For `CN1C2CCC1CC(Oc1ccc(-c3n[nH]c4ccc(C(=O)NC(c5ccccc5)C(F)(F)F)cc34)cc1)C2` (centres unmarked) [Example A400], the IC50 in experiment [1] is under 100 nM. Besides, the GI50 in experiment [2] is over 500 nM; in experiment [3] (Homo sapiens, HCT-116), 100 to 500 nM; in experiment [4] (Homo sapiens), 100 to 500 nM.

`CN1[C@@H]2CC[C@H]1C[C@@H](Oc1ccc(-c3n[nH]c4ccc(C(=O)NCC5(OC6CCCC6)CCCCC5)cc34)cc1)C2` [Example A438]: the IC50 in experiment [1] was under 100 nM. Further, the GI50 is over 500 nM in experiment [2]; 100 to 500 nM in experiment [3] (Homo sapiens, HCT-116); 100 to 500 nM in experiment [4] (Homo sapiens).

As for `CCC[C@H](NC(=O)c1ccc2[nH]nc(-c3ccc(OC4CC5CCC(C4)N5C4COC4)cc3)c2c1)c1ccccc1` (stereo partly drawn) [Example A344, 3-(4-(((1R,3R,5S)-8-(oxetan-3-yl)-8-azabicyclo[3.2.1]octan-3-yl)oxy)phenyl)-N-((S)-1-phenylbutyl)-1H-indazole-5-carboxamide], in experiment [1], the IC50 is under 100 nM. The GI50 in experiment [2] is over 500 nM; in experiment [3] (Homo sapiens, HCT-116), over 500 nM; in experiment [4] (Homo sapiens), 100 to 500 nM.

In the case of `CC(C)[C@H](NC(=O)c1ccc2[nH]nc(-c3ccc4c(c3)C(=O)CC3(CN(C)C3)O4)c2c1)c1ccccc1Cl` [Example A255, (S)-N-(1-(2-chlorophenyl)-2-methylpropyl)-3-(1-methyl-4′-oxospiro[azetidine-3,2′-chroman]-6′-yl)-1H-indazole-5-carboxamide], the IC50 in experiment [1] was under 100 nM. The GI50 in experiment [2] was 100 to 500 nM; in experiment [3] (Homo sapiens, HCT-116) it was 100 to 500 nM; in experiment [4] (Homo sapiens) it was 100 to 500 nM.
